“Also recorded” adds a separate entry of the source.
Legend:
[1] = test system: T. cruzi CA-I/72 infected C3H mice; experiment: Murine model of acute Chagas' disease; type: in vivo, mouse; set-up: key to Histopathology, Heart / Histopathology, Liver / Histopathology, Spleen / Histopathology, Colon: I/I: Inflammation and infiltration; +10A: Numerous nests of T. cruzi amastigotes; +A: 1-3 nests of T. cruzi amastigotes; Negative
Experimental: Three to four week old female C3H mice weighing ca. 20 g were used. The animals were separated into five lots of 5 mice per cage and infected with 10^6 tissue-culture derived trypomastigotes of the myotropic T. cruzi CA-I/72 cloned stock. The mice were treated with 100 mg compound/kg of body weight in 100 µL of solution (30–40% DMSO: 60–70% sterile distilled water) intraperitoneally twice a day. Treatment was initiated 12 h post infection and continued until cure, death of the animals, or for a total of 20 days. […] Parasitemias was determined at the end of the experiment when animals were euthanized. Tissues processed for histopathology include skeletal muscle, heart, liver, spleen, and colon. Blood (5–50 µL) was used for hemocultures. […] Compounds were considered toxic if life expectancy is lower than untreated controls (negative values). If necessary, PCR of blood and tissues was performed to confirm effectiveness of treatment and/or cure of treated animals. Results were expressed as survival (days) of treated animals.

tbcatB = biological target: T1, tbcatB (Trypanosoma brucei, UniProt Q6R7Z5); experiment: tbcatB enzyme assay; type: biochemical
T1 construct: made in house
T1 sequence (Q6R7Z5 23-340): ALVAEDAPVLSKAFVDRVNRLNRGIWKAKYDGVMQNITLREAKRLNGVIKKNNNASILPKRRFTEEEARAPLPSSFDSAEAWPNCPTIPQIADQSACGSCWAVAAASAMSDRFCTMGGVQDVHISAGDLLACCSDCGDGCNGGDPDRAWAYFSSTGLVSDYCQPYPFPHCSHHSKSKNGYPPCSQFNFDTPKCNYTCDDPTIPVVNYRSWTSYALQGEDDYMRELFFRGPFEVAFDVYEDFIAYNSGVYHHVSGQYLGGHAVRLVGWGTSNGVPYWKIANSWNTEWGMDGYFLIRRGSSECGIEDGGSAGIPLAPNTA
Experimental: (§1) Cruzain[27],[28], rhodesain [29], and tbcatB [30] were recombinantly expressed as described previously. TbcatB assays were performed as described previously.[31] Cruzain (2 nM) or rhodesain (3 nM) was incubated with 0.5 to 10 µM inhibitor concentration in 100 mM sodium acetate at pH 5.5, containing 5 mM DTT (buffer A) for 5 min at room temperature. Then buffer A containing Z-Phe-Arg-AMC (Bachem, K M = 1 µM) was added to enzyme inhibitor to give 20 µM substrate concentration in 200 µL, and the increase in fluorescence (excitation at 355 nm and emission at 460 nm) was followed with an automated microtiter plate spectrofluorometer (Molecular Devices, Flex station). Inhibitor stock solutions were prepared at 20 mM in DMSO, and serial dilutions were made in DMSO (0.7% DMSO in assay). Controls were performed using enzyme alone and enzyme with DMSO. IC50 values were determined graphically using inhibitor concentrations in the linear portion of a plot of inhibition versus log[I] (seven concentrations tested with at least two in the linear range).
(§2) Inhibitor dilutions which produce simple exponential progress curves over a wide range of k obs, were used to determine kinetic parameters. The value of k obs, the rate constant for loss of enzyme activity, was determined from an equation for pseudo first order dynamics using Prism 4.0 (GraphPad). When k obs varied linearly with inhibitor concentration, k ass was determined by linear regression analysis. If the variation was hyperbolic, indicating saturation inhibition kinetics, k inact and K i were determined from an equation describing a two-step irreversible inhibitor mechanism [k obs = k inact [I]o/([I]o+Ki* (1+[S]o/K M))] and non-linear regression analysis Prism 4.0.[32] All values were corrected for substrate concentration.

Cathepsin C = biological target: T2, Cathepsin C (Homo sapiens, UniProt P53634); experiment: Protease inhibition profiling (Reaction Biology Corp): Cathepsin C; type: biochemical
T2 construct: Reaction Biology Corp (screening service)

Papain = biological target: T3, Papain (Carica papaya, UniProt P00784); experiment: Protease inhibition profiling (Reaction Biology Corp): Papain; type: biochemical
T3 construct: Reaction Biology Corp (screening service)
T3 sequence (P00784 134-345): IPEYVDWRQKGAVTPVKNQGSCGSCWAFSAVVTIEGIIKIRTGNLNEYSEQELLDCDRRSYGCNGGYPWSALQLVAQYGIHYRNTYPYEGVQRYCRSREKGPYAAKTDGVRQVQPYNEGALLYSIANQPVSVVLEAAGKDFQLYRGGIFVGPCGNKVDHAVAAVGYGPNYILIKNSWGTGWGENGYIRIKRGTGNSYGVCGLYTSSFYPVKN

Cathepsin V = biological target: T4, Cathepsin V (Homo sapiens, UniProt O60911); experiment: Protease inhibition profiling (Reaction Biology Corp): Cathepsin V; type: biochemical
T4 construct: Reaction Biology Corp (screening service)

[2] = test system: T. cruzi infected J774 macrophages; experiment: T. cruzi growth inhibition in infected J774 macrophages (cell survival); type: cell-based, Trypanosoma cruzi CA-I/72; conditions: 10 µM inhibitor every 48 h until Day 27, experiment terminated on Day 47, untreated control 6 days
Experimental: CA-I/72 T. cruzi parasites were isolated from a chronic Chagasic patient, cloned, and maintained as previously described.[33]
For growth inhibition studies, J774 macrophages cultured in RPMI-1640 medium with 5% heat inactivated fetal calf serum (FCS) were irradiated (9000 rad) to arrest the cell cycle and plated onto 12-well tissue culture plates for 24 h at 37°C. After infection with 10^5 T. cruzi trypomastigotes per well for 2 hours, monolayers were washed with RPMI medium and treated with the inhibitors at 10 µM in RPMI medium (triplicate wells per inhibitor). Inhibitor stocks were made to 10 mM in DMSO and diluted prior to use. All assays include untreated, K11777-treated, and uninfected macrophage controls. Fresh medium with or without inhibitor was replaced every 48 h and inhibitor efficacy was monitored daily. Survival time was defined as the time before the cell monolayer was destroyed by the infection. Under these culture conditions, T. cruzi completed the intracellular cycle in 6 days in untreated controls. […] Macrophages were subsequently cultured in normal medium for up to 40 days to elucidate if the effective inhibitors were trypanocidal (cure host macrophages) or trypanostatic (delay intracellular cycle of the parasite).

Cathepsin S = biological target: T5, Cathepsin S (Homo sapiens, UniProt P25774); experiment: Protease inhibition profiling (Reaction Biology Corp): Cathepsin S; type: biochemical
T5 construct: Reaction Biology Corp (screening service)

Cathepsin K = biological target: T6, Cathepsin K (Homo sapiens, UniProt P43235); experiment: Protease inhibition profiling (Reaction Biology Corp): Cathepsin K; type: biochemical
T6 construct: Reaction Biology Corp (screening service)
T6 sequence (P43235 115-329): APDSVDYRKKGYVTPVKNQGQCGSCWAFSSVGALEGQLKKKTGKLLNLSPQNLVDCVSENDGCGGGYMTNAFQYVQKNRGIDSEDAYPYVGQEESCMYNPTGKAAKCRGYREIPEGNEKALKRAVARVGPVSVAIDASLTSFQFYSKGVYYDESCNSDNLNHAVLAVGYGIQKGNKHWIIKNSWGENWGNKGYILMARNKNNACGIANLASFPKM

Cruzain = biological target: T7, Cruzain (Trypanosoma cruzi, UniProt P25779); experiment: Cruzain enzyme assay (acetate buffer pH 5.5, Z-Phe-Arg-AMC); type: biochemical; conditions: 100 mM sodium acetate pH 5.5, 5 mM DTT
T7 construct: made in house
Experimental: as §1, with “(seven concentrations tested with at least two in the linear range).” left out
Inhibitor dilutions which produce simple exponential progress curves over a wide range of k obs, were used to determine kinetic parameters. The value of k obs, the rate constant for loss of enzyme activity, was determined from an equation for pseudo first order dynamics using Prism 4.0 (GraphPad). When k obs varied linearly with inhibitor concentration, k ass was determined by linear regression analysis. […]

[3] = test system: T. cruzi infection in BESM cells; set-up: method as in PMID 20547819; conditions: read-out: EC50 against T. cruzi infection in BESM cells; cited from earlier work
Rhodesain = biological target: T8, Rhodesain (Trypanosoma brucei rhodesiense, UniProt Q95PM0); experiment: Rhodesain enzyme assay (acetate buffer pH 5.5, Z-Phe-Arg-AMC); type: biochemical, T. brucei; conditions: 100 mM sodium acetate pH 5.5, 5 mM DTT
T8 construct: made in house
Experimental: as §1, §2

[4] = individual infected mice, 100 mg/kg ip
[5] = individual infected mice, 100 mg/kg ip, 100 mg/kg

T4 sequence (O60911 114-334, species assumed): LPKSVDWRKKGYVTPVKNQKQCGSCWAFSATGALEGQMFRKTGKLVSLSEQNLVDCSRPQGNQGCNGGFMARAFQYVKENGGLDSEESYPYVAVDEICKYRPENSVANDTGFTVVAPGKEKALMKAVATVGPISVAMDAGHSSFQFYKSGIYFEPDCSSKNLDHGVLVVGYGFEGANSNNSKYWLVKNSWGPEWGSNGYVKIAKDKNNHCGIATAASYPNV
T2 sequence (P53634 25-463, species assumed): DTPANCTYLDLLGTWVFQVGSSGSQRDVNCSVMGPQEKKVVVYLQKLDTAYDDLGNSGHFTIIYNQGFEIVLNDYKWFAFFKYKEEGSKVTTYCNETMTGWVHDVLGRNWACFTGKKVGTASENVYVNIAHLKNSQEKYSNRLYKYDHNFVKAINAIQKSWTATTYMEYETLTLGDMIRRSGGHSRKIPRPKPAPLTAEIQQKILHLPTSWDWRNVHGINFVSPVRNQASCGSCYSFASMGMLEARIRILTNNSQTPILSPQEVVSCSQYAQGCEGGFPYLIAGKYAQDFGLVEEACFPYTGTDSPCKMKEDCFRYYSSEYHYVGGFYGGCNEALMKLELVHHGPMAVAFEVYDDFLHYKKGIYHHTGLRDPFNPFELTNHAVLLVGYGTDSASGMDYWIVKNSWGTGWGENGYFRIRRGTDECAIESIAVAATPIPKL
T7 sequence (P25779 123-337 limits assumed): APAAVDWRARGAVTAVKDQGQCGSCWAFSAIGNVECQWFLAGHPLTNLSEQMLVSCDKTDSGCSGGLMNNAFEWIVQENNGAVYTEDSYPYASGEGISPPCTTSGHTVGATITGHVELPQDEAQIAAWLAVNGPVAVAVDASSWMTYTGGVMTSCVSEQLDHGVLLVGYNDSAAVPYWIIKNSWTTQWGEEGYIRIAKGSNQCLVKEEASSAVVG
T8 sequence (Q95PM0 entry or part of it): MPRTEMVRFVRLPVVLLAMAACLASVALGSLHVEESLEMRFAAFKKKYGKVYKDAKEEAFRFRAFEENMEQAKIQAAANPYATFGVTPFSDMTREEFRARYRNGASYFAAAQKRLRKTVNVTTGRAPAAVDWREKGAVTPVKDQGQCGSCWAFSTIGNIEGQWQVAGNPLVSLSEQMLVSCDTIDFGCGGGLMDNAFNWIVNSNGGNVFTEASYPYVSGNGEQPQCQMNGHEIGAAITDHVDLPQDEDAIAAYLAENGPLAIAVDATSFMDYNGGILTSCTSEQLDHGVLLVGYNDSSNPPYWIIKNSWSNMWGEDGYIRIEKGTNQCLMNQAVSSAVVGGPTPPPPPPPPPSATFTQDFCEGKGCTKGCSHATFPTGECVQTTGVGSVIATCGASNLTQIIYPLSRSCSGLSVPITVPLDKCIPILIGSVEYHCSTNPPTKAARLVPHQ
T5 sequence (P25774 115-331, species assumed): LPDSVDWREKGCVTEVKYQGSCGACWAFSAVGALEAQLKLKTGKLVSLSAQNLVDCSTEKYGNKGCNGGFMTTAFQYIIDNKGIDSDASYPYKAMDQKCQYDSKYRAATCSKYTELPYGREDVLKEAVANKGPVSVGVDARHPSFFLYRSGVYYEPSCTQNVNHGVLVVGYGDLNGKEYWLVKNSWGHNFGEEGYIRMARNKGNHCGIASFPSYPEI

Row | Structure (SMILES) | T. cruzi infected mouse survival ([1]; 100 mg inhibitor/kg body weight in two daily doses, intraperitoneally, untreated control 21 days) [days] | survival of the acute infection ([1]; 10^6 trypomastigotes CA-I/72, untreated controls died within 21–60 days) | Histopathology, Colon [1, 4] | Histopathology, Liver [1, 4] | Histopathology, Spleen [1, 4] | Histopathology, Heart [1, 5] | Histopathology, Sk. muscle [1, 5] | inhibition of tbcatB (in words) (tbcatB) | tbcatB k ass (tbcatB) [M⁻¹ s⁻¹] | inhibition at 1 µM (tbcatB; read-out: tbcatB % inhibition at 1 µM) [%] | IC50 (Cathepsin C) [nM] | IC50 (Papain) [nM] | IC50 (Cathepsin V) [nM] | T. cruzi infected cell survival [2] [days] | IC50 (Cathepsin S) [nM] | IC50 (Cathepsin K) [nM] | k obs/[I] at 1 µM, Cruzain (Cruzain) | EC50 [3] [nM] | k obs/[I] at 1 µM, Rhodesain (Rhodesain)
1 | CN1CCN(C(=O)N[C@@H](Cc2ccccc2)C(=O)N[C@H](/C=C/S(=O)(=O)c2ccccc2)CCc2ccccc2)CC1 [K11777] | 110 | survived the acute infection | N | N | N | Mild i/i and N | +AIntense i/i; also recorded: Moderate i/i; also recorded: +AModerate i/i; also recorded: Intense i/i | weak inhibitors | 500 ± 100 | 48 | 0.4 | 0.4 | 1.2 | 47 | 0.6 | 25 | 108,000±4,200 s^-1 M^-1 | 4200 | 48,000±10,200 s^-1 M^-1
2 | CC[C@@H]([C@H](C)O)n1ncn(-c2ccc(N3CCN(c4ccc(OC[C@@H]5CO[C@@](Cn6cncn6)(c6ccc(F)cc6F)C5)cc4)CC3)cc2)c1=O [posaconazole] | – | – | – | – | – | – | – | – | – | – | – | – | – | – | – | – | – | 200 | –

From article PMC2939063, “In Vitro and In Vivo Studies of the Trypanocidal Properties of WRR-483 against Trypanosoma cruzi” (PLoS Neglected Tropical Diseases, 2010)
